This note sets out measurements from patent US10005782B2, “Substituted pyrazolo[1,5-a]pyrimidines as bruton's tyrosine kinase modulators” (BeiGene, Ltd., priority 2013, dated 2018).

Read-outs that look alike come from different tables or passages of the source.

The assay concerns the target Recombinant Btk (Homo sapiens (Human), UniProt Q06187). In words: Btk kinase assay (TR-FRET).
The mark [1] stands for this setting: read-out: IC50 (nM) Btk, 1 hour pre-incubation, ATP at Km.

Recombinant Btk, sequence (Q06187 whole entry): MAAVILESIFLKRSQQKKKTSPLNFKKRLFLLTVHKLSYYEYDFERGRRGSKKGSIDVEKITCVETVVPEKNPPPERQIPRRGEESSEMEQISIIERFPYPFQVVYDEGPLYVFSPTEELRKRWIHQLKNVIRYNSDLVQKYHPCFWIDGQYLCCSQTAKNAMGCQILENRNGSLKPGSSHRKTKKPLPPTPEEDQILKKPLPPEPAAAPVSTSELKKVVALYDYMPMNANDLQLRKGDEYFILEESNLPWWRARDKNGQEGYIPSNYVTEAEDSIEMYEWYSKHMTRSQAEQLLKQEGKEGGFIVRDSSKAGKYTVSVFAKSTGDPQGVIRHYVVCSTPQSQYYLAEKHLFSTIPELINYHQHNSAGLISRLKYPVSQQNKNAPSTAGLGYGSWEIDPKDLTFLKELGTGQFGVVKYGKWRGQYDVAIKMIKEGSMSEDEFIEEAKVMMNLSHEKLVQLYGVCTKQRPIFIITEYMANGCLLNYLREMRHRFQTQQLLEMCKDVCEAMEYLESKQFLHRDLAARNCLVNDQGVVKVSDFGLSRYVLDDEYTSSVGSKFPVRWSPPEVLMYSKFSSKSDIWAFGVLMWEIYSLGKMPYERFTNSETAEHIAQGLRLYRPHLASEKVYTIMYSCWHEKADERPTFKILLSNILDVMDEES

Broadly, the IC50 is the midpoint of a concentration-inhibition curve. As to `NC(=O)c1c(-c2ccc(Oc3ccccc3)cc2)nn2c1NCCC2c1cccc(N)c1` (single isomer, unassigned) [Compound 2a, 7-(3-Aminophenyl)-2-(4-phenoxyphenyl)-4,5,6,7-tetrahydropyrazolo[1,5-a]pyrimidine-3-carboxamide], the IC50 (read-out: IC50 (nM) Btk, 1 hour pre-incubation, ATP at Km, listed as 2a (peak 1)) is 270 nM.
Consider `NC(=O)c1c(-c2ccc(Oc3ccccc3)cc2)nn2c1NCCC2c1cccc(N)c1` (single isomer, unassigned) [Compound 2b, 7-(3-Aminophenyl)-2-(4-phenoxyphenyl)-4,5,6,7-tetrahydropyrazolo[1,5-a]pyrimidine-3-carboxamide], for which the IC50 (read-out: IC50 (nM) Btk, 1 hour pre-incubation, ATP at Km, listed as 2b (peak 2)) was found to be 210 nM.
For `C=CC(=O)Nc1ccccc1C1CCNc2c(C(N)=O)c(-c3ccc(F)c(F)c3)nn21` (stereo not shown) [Compound 137, 7-(2-acrylamidophenyl)-2-(3,4-difluorophenyl)-4,5,6,7-tetrahydropyrazolo[1,5-a]pyrimidine-3-carboxamide], under setting [1], the IC50 was determined as 3.7 nM.
As to `C=CC(=O)Nc1ccccc1C1CCNc2c(C(N)=O)c(-c3ccc(OC)c(OC)c3)nn21` (stereo not shown) [Compound 168, 7-(2-Acrylamidophenyl)-2-(3,4-dimethoxyphenyl)-4,5,6,7-tetrahydropyrazolo[1,5-a]pyrimidine-3-carboxamide], the IC50 under setting [1] is 3.7 nM.
